Laboratory results taken from patent US20200331904A1, “3-AMINO-[1,2,4]-TRIAZOLE DERIVATIVES AND THEIR USE FOR CONTROLLING UNDESIRED PLANT GROWTH” (Bayer CropScience Aktiengesellschaft, priority 2017, published 2020).

Tests used:
Type in all cases: in vivo
Echinochloa crus-galli [1] = assay: Pre-emergence herbicidal efficacy, ECHCG; conditions: Table B1, application rate 320 g/ha, scored visually after about 3 weeks vs untreated controls
Outline: (§1)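 Seeds were sown in pots and covered with soil; WP or EC formulations were sprayed onto the soil surface as aqueous suspension or emulsion with 0.5% additive. Pots were kept in a greenhouse, and after about 3 weeks damage was rated visually as percent versus untreated controls (100% = plants dead, 0% = like control).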

Lolium rigidum [2] = assay: Pre-emergence herbicidal efficacy, LOLRI; conditions: Table B1, application rate 320 g/ha, scored visually after about 3 weeks vs untreated controls
Outline: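 Seeds sown in pots and covered with soil. Greenhouse-grown about 3 weeks, then visually scored as % activity vs untreated controls (100% = dead, 0% = like control).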

Setaria viridis [3] = assay: Pre-emergence herbicidal efficacy, SETVI; conditions: Table B1, application rate 320 g/ha, scored visually after about 3 weeks vs untreated controls
Outline: as §1

Abutilon theophrasti [4] = assay: Pre-emergence herbicidal efficacy, ABUTH; conditions: Table B1, application rate 320 g/ha, scored visually after about 3 weeks vs untreated controls
Outline: as §1

Amaranthus retroflexus [5] = assay: Pre-emergence herbicidal efficacy, AMARE; conditions: Table B1, application rate 320 g/ha, scored visually after about 3 weeks vs untreated controls
Outline: as §1

Matricaria inodora = assay: Pre-emergence herbicidal efficacy, MATIN; conditions: Table B1, application rate 320 g/ha, scored visually after about 3 weeks vs untreated controls
Outline: as §1

Polygonum convolvulus = assay: Pre-emergence herbicidal efficacy, POLCO; conditions: Table B1, application rate 320 g/ha, scored visually after about 3 weeks vs untreated controls
Outline: as §1

Stellaria media [6] = assay: Pre-emergence herbicidal efficacy, STEME; conditions: Table B1, application rate 320 g/ha, scored visually after about 3 weeks vs untreated controls
Outline: as §1

Viola tricolor [7] = assay: Pre-emergence herbicidal efficacy, VIOTR; conditions: Table B1, application rate 320 g/ha, scored visually after about 3 weeks vs untreated controls
Outline: as §1

Veronica persica [8] = assay: Pre-emergence herbicidal efficacy, VERPE; conditions: Table B1, application rate 320 g/ha, scored visually after about 3 weeks vs untreated controls
Outline: as §1

Setaria viridis [9] = assay: Post-emergence herbicidal efficacy, SETVI; conditions: Table B6, one-leaf stage, application rate 320 g/ha, rated visually after about 3 weeks vs untreated controls
Text: (§2) ABUTH: Abutilon theophrasti ALOMY: Alopecurus myosuroides AMARE: Amaranthus retroflexus AVEFA: Avena fatua CYPES: Cyperus esculentus ECHCG: Echinochloa crus-galli LOLMU: Lolium multiflorum MATIN: Matricaria inodora PHBPU: Ipomoea purpurea POLCO: Polygonum convolvulus SETVI: Setaria viridis STEME: Stellaria media VERPE: Veronica persica VTOTR: Viola tricolor
(§3) C.2 Post-Emergence Herbicidal Action and Crop Plant Compatibility
(§4) Seeds of monocotyledonous and dicotyledonous weeds and crop plants are placed in sandy loam in plastic or organic planting pots, covered with soil and cultivated in a greenhouse under controlled growth conditions. 2 to 3 weeks after sowing, the test plants are treated at the one-leaf stage. The compounds of the invention, formulated in the form of wettable powders (WP) or as emulsion concentrates (EC), are then sprayed onto the green parts of the plants as aqueous suspension or emulsion with addition of 0.5% additive at a water application rate of […] (converted). After the test plants had been kept in the greenhouse under optimum growth conditions for about 3 weeks, the activity of the preparations is rated visually in comparison to untreated controls. For example, 100% activity=the plants have died, 0% activity=like control plants.

Abutilon theophrasti [10] = assay: Post-emergence herbicidal efficacy, ABUTH; conditions: Table B6, one-leaf stage, application rate 320 g/ha, rated visually after about 3 weeks vs untreated controls
Text: as §2, §3, §4

Amaranthus retroflexus [11] = assay: Post-emergence herbicidal efficacy, AMARE; conditions: application rate 320 g/ha
Text: as §2, §3, §4

Veronica persica [12] = assay: Post-emergence herbicidal efficacy, VERPE; conditions: application rate 320 g/ha
Text: as §2, §3, §4

harmful plants [13] = assay: Pre-emergence herbicidal action; conditions: applied pre-emergence
Text: C.1 Pre-Emergence Herbicidal Action and Crop Plant Compatibility
Seeds of monocotyledonous and dicotyledonous weed plants and crop plants are placed in plastic or organic planting pots and covered with soil. The compounds of the invention, formulated in the form of wettable powders (WP) or as emulsion concentrates (EC), are then applied onto the surface of the covering soil as aqueous suspension or emulsion with addition of 0.5% additive at a water application rate of […] (converted). After the treatment, the pots are placed in a greenhouse and kept under good growth conditions for the trial plants. After about 3 weeks, the effect of the preparations is scored visually in comparison with untreated controls as percentages. For example, 100% activity=the plants have died, 0% activity=like control plants.

Echinochloa crus-galli [14] = assay: Post-emergence herbicidal efficacy, ECHCG; conditions: application rate 320 g/ha, rated visually after about 3 weeks
Text: as §2, §3, §4

Lolium rigidum [15] = assay: Post-emergence herbicidal efficacy, LOLRI; conditions: application rate 320 g/ha, rated visually after about 3 weeks
Protocol: as §3, §4

Stellaria media [16] = assay: Post-emergence herbicidal efficacy, STEME; conditions: application rate 320 g/ha, rated visually after about 3 weeks
Text: as §2, §3, §4

Viola tricolor [17] = assay: Post-emergence herbicidal efficacy, VIOTR; conditions: application rate 320 g/ha, rated visually after about 3 weeks (Table B5)
Text: as §2, §3, §4

harmful plants [18] = assay: Post-emergence herbicidal action; conditions: applied post-emergence
Protocol: as §3, §4

[19] = Table B6, one-leaf stage, rated visually after about 3 weeks vs untreated controls
[20] = rated visually after about 3 weeks
[21] = rated visually after about 3 weeks (Table B5)

Compound | Herbicidal efficacy against ECHCG (Echinochloa crus-galli [1]) [%] | Herbicidal efficacy against LOLRI (Lolium rigidum [2]) [%] | Herbicidal efficacy against SETVI (Setaria viridis [3]) [%] | Herbicidal efficacy against ABUTH (Abutilon theophrasti [4]) [%] | Herbicidal efficacy against AMARE (Amaranthus retroflexus [5]) [%] | Herbicidal efficacy against MATIN (Matricaria inodora) [%] | Herbicidal efficacy against POLCO (Polygonum convolvulus) [%] | Herbicidal efficacy against STEME (Stellaria media [6]) [%] | Herbicidal efficacy against VIOTR (Viola tricolor [7]) [%] | Herbicidal efficacy against VERPE (Veronica persica [8]) [%] | Herbicidal efficacy against SETVI (Setaria viridis [9]) [%] | Herbicidal efficacy against ABUTH (Abutilon theophrasti [10]) [%] | Herbicidal efficacy against AMARE (Amaranthus retroflexus [11]; [19]) [%] | Herbicidal efficacy against VERPE (Veronica persica [12]; [19]) [%] | Herbicidal efficacy against ECHCG (Echinochloa crus-galli [14]) [%] | Herbicidal efficacy against LOLRI (Lolium rigidum [15]) [%] | Herbicidal efficacy against AMARE (Amaranthus retroflexus [11]; [20]) [%] | Herbicidal efficacy against STEME (Stellaria media [16]) [%] | Herbicidal efficacy against VIOTR (Viola tricolor [17]) [%] | Herbicidal efficacy against VERPE (Veronica persica [12]; [21]) [%] | also measured
CC(=O)N1CCn2nc(N[C@@H]3CCCc4ccc(C)cc43)nc2C1 [Example I-180] | 100 | 100 | 100 | 100 | 100 | 100 | 100 | 100 | 100 | 100 | 80 | 80 | 80 | 80 | – | – | – | – | – | – | –
Cc1ccc2c(c1)[C@H](Nc1nc3n(n1)CCN(S(=O)(=O)C(C)C)C3)CCC2 [Example I-199] | 100 | 100 | 100 | 100 | 100 | 100 | 100 | 100 | 100 | 100 | – | – | – | – | – | – | – | – | – | – | herbicidal efficacy against harmful plants (harmful plants [13]): very good herbicidal efficacy
Cc1ccc2c(c1)C(Nc1nc3n(n1)CCCCS3)CCC2 (stereo not shown) [Example I-214] | 100 | 100 | 100 | 100 | 100 | 100 | 100 | 100 | 100 | 100 | 100 | 80 | 80 | 100 | – | – | – | – | – | – | –
Cc1ccc2c(c1)C(Nc1nc3n(n1)CCCCS3(=O)=O)CC2 (stereo not shown) [Example I-232] | 100 | 100 | 100 | 100 | 100 | 100 | 100 | 100 | 100 | 100 | – | – | – | – | 80 | 90 | 100 | 100 | 90 | 90 | –
Cc1ccc2c(c1)C(Nc1nc3n(n1)CCCCS3)CC2 (stereo not shown) [Example I-248] | 100 | 100 | 100 | 100 | 100 | 100 | 100 | 100 | 100 | 100 | – | – | – | – | 100 | 100 | 90 | 100 | 90 | 90 | herbicidal efficacy against harmful plants (harmful plants [18]): very good herbicidal efficacy
Cc1ccc2c(c1)[C@H](Nc1nc3n(n1)CCCCS3)CC2 [Example I-353] | 100 | 100 | 100 | 100 | 100 | 100 | 100 | 100 | 100 | 100 | – | – | – | – | 100 | 100 | 90 | 100 | 80 | 90 | herbicidal efficacy against harmful plants (harmful plants [18]): very good herbicidal efficacy
Cc1ccc2c(c1)C(Nc1nc3n(n1)CCCCS3)C(C)C2 (stereo not shown) [Example I-354] | 100 | 100 | 100 | 100 | 100 | 100 | 100 | 100 | 100 | 100 | – | – | – | – | 100 | 100 | 80 | 100 | 80 | 100 | –
Cc1ccc2c(c1)C(Nc1nc3n(n1)CCCCS3(=O)=O)C(C)C2 (stereo not shown) [Example I-366] | 100 | 100 | 100 | 100 | 100 | 100 | 100 | 100 | 100 | 100 | – | – | – | – | 100 | 90 | 80 | 90 | – | – | –
Cc1ccc2c(c1)[C@H](Nc1nc3n(n1)CCCCS3)CCO2 [Example I-377] | 100 | 100 | 100 | 100 | 100 | 100 | 100 | 100 | 100 | 100 | 90 | 80 | 80 | 90 | – | – | – | – | – | – | –
Cc1ccc2c(c1)[C@H](Nc1nc3n(n1)CCCCS3)CCC2 [Example I-402] | 100 | 100 | 100 | 100 | 100 | 100 | 100 | 100 | 100 | 100 | – | – | – | – | 100 | – | 90 | 90 | 90 | 90 | –
